The record followed here is ChEMBL document CHEMBL4004848, “Dregamine and tabernaemontanine derivatives as ABCB1 modulators on resistant cancer cells” (Eur J Med Chem, 2017).

One data set deals with L5178Y. Nature of the data set: Cytotoxicity against mouse L5178Y cells after 24 hrs by MTT assay. Format: functional, cell-based.
The subject of the next data set is NIH3T3. Briefly: Cytotoxicity against mouse NIH/3T3 cells after 24 hrs by MTT assay. The data set is classed as cell-based. The conditions noted are these: NIH3T3, 24 h.
A short description of data set [1]: Selectivity index, ratio of IC50 for mouse L5178Y cells to IC50 for human ABCB1 expressed in L5178Y cells.
For data set [2], the target named is T1, ATP-dependent translocase ABCB1 (Homo sapiens, UniProt P08183). Nature of the data set: Inhibition of human ABCB1 expressed in mouse L5178Y cells assessed as increase in rhodamine-123 accumulation by measuring forward scatter count of cells at 2 uM pretreated for 10 mins followed by rhodamine-123 addition after 20 mins by flow cytometry (reference value: 2206). The data set is classed as cell-based.
T1 sequence (P08183 whole entry): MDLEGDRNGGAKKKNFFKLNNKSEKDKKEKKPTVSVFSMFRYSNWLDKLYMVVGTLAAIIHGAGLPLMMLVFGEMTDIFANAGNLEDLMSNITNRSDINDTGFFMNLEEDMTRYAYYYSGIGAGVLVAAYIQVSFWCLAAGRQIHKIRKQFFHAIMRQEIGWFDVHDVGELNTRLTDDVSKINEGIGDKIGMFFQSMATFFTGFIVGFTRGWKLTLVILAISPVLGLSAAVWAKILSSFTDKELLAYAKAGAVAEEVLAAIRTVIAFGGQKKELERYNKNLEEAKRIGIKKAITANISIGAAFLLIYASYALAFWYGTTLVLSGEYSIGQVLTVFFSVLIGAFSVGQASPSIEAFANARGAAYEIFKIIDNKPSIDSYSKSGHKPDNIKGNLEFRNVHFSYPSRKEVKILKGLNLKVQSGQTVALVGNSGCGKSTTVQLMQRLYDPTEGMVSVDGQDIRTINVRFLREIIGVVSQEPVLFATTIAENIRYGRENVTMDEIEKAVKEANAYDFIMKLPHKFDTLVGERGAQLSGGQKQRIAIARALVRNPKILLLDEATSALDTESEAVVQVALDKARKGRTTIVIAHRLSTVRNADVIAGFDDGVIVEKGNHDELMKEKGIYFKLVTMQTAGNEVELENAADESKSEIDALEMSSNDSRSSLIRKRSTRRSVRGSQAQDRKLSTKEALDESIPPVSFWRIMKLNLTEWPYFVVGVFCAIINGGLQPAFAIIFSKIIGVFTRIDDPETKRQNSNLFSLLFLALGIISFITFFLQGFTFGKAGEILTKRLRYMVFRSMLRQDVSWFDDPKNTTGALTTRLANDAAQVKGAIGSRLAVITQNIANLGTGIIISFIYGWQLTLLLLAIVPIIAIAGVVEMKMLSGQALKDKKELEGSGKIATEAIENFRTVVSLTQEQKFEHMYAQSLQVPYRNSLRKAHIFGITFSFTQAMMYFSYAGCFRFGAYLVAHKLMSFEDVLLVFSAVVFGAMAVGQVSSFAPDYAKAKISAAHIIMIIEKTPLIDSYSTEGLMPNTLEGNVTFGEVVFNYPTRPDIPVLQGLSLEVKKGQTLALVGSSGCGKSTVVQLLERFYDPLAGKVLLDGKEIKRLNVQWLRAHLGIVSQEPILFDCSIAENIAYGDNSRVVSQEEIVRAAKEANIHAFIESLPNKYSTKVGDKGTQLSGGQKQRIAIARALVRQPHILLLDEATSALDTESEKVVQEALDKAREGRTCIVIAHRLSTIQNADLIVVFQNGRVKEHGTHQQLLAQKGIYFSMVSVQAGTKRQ

In data set [3] the target is T1, ATP-dependent translocase ABCB1. Briefly: Inhibition of human ABCB1 expressed in mouse L5178Y cells assessed as increase in rhodamine-123 accumulation by measuring forward scatter count of cells at 20 uM pretreated for 10 mins followed by rhodamine-123 addition after 20 mins by flow cytometry (reference value: 2206). The data set is classed as cell-based.
For data set [4] the target is unchanged. Briefly: Inhibition of human ABCB1 expressed in mouse L5178Y cells assessed as increase in rhodamine-123 accumulation by measuring side scatter count of cells at 2 uM pretreated for 10 mins followed by rhodamine-123 addition after 20 mins by flow cytometry (reference value: 903). The data set is classed as cell-based.
Data set [5] shares this target. Nature of the data set: Inhibition of human ABCB1 expressed in mouse L5178Y cells assessed as increase in rhodamine-123 accumulation by measuring side scatter count of cells at 20 uM pretreated for 10 mins followed by rhodamine-123 addition after 20 mins by flow cytometry (reference value: 903). Format: cell-based.
The target is the same in data set [6]. Nature of the data set: Inhibition of human ABCB1 expressed in mouse L5178Y cells assessed as fluorescence activity ratio at 2 uM pretreated for 10 mins followed by rhodamine-123 addition after 20 mins by flow cytometry. The data set is classed as cell-based.
For data set [7] the target is unchanged. Briefly: Inhibition of human ABCB1 expressed in mouse L5178Y cells assessed as fluorescence activity ratio at 20 uM pretreated for 10 mins followed by rhodamine-123 addition after 20 mins by flow cytometry. Format: cell-based.
The target is the same in data set [8]. Nature of the data set: Inhibition of human ABCB1 expressed in mouse L5178Y cells pretreated for 10 mins followed by rhodamine-123 addition after 20 mins by flow cytometry. The data set is classed as cell-based.
Data set [9] shares this target. Nature of the data set: Inhibition of human ABCB1 expressed in mouse L5178Y cells assessed as potentiation of doxorubicin-induced cytotoxicity by measuring combination index at 1:25 doxorubicin to compound ratio after 48 hrs by MTT assay. The data set is classed as cell-based.
A short description of data set [10]: Selectivity index, ratio of IC50 for mouse NIH/3T3 cells to IC50 for mouse L5178Y cells. The data set is classed as functional.
The target in data set [11] is T1, ATP-dependent translocase ABCB1. Nature of the data set: Inhibition of human ABCB1 expressed in mouse L5178Y cells assessed as potentiation of doxorubicin-induced cytotoxicity by measuring combination index at 4:25 doxorubicin to compound ratio after 48 hrs by MTT assay. The data set is classed as cell-based.
Data set [12] has the same target. Briefly: Inhibition of human ABCB1 expressed in mouse L5178Y cells assessed as potentiation of doxorubicin-induced cytotoxicity by measuring combination index at 1:5 doxorubicin to compound ratio after 48 hrs by MTT assay. Format: cell-based.

On to `CC[C@H]1CN(C)[C@H]2Cc3c([nH]c4ccccc34)/C(=N/NC(=O)OCc3ccc(OC)cc3)C[C@H]1[C@@H]2C(=O)OC`, for which the IC50 in the data set on L5178Y is 34.3 µM; with NIH3T3, above 100 µM. In addition, the “Ratio IC50” value in [1] is 0.65. In addition, the Activity in data set [2] is reported as 2262; in [3], 2278; in [4] it was 784; in data set [5] it was 746. The results for the Ratio in data set [6] and in data set [7] were 31.88 and 72.88, respectively. Also, the “inhibition (INH)” value in data set [8] was “Dose-dependent effect”. Moreover, in data set [9], the CI is 0.16.
Turning to `CC[C@H]1CN(C)[C@H]2Cc3c([nH]c4ccccc34)/C(=N/NC(=S)NCc3cccnc3)C[C@H]1[C@@H]2C(=O)OC`, the IC50 with L5178Y turned out to be 20.8 µM; with NIH3T3, 50.9 µM. Further, the “Ratio IC50” value in [1] was determined as 0.46; in [10], 2.45. Moreover, the Activity in data set [2] worked out at 2244; in [3] it was 2301; in [4] it was 808; in data set [5] it was 805. Further, the Ratio in data set [6] is given as 1.27; in data set [7] it was 30.98. In addition, the “inhibition (INH)” value in data set [8] is recorded as “Dose-dependent effect”. Besides, the CI in data set [11] stood at 0.6.
For the compound `CC[C@H]1CN(C)[C@H]2Cc3c(n(Cc4ccccc4)c4ccccc34)C(=O)C[C@H]1[C@@H]2C(=O)OC`, the IC50 was determined as 33.3 µM in the data set with L5178Y and 56.1 µM with NIH3T3. Moreover, the entries for the “Ratio IC50” value in data set [1] and in data set [10] were 0.87 and 1.68, respectively. The Activity in data set [2] was determined as 2417; in [3], 2449; in data set [4] it was 1217; in [5], 1193. Besides, the Ratio was found to be 4.82 in data set [6] and 55.74 in data set [7]. In addition, the “inhibition (INH)” value in data set [8] is recorded as “Dose-dependent effect”. The CI in data set [9] worked out at 0.23.
For the compound `CC[C@H]1CN(C)[C@H]2Cc3c([nH]c4ccccc34)C(=S)C[C@H]1[C@@H]2C(=O)OC`, the values for the IC50 in the data set with L5178Y and in the data set with NIH3T3 were 54.5 µM and above 100 µM, respectively. Further, the “Ratio IC50” value in [1] was determined as 0.7. Further, the Activity in data set [2] is listed as 2242; in [3] it was 2242; in data set [4], 1120; in data set [5], 1226. In addition, the Ratio in [6] is recorded as 2.99; in data set [7], 51.15. The “inhibition (INH)” value in data set [8] is “Dose-dependent effect”. For the same compound, the CI in data set [12] was 0.22.
